# Target: EBNA1 DNA binding domain (Human herpesvirus 4, UniProt P03211 SEQ:454-607)
# Assay: FP; 200 mM NaCl, 20 mM Tris-Cl pH 7.4, 1 mM DTT, 10 ug/mL BSA, 25 C; 5 nM probe; probe performed significantly better in FP than in EMSA comparison
# Conditions: tags: hexa-histidine, E. coli expressed; chain copies: 2; label: CY5 (opl 3016) or FITC (opl 4624); hairpin
# Chain of EBNA1 DNA binding domain (P03211 454-607): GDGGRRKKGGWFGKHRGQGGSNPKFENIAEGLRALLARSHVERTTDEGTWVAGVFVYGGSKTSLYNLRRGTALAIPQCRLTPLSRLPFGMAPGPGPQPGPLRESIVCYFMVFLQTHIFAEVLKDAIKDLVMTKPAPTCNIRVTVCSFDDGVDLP
row,Molecule,binding result
1,GGGTAGCATATGCTATCTAGATAGCATATGCTACCC (structured_DNA) [EBNA1 BS Hairpin (opl 3016 / opl 4624)],binds

# Target: T1, EBNA1 (Epstein-Barr virus, UniProt P03211)
# T1 construct: expressed in transfected cells; host or cells: 293T cells
# T1 sequence (P03211 whole entry): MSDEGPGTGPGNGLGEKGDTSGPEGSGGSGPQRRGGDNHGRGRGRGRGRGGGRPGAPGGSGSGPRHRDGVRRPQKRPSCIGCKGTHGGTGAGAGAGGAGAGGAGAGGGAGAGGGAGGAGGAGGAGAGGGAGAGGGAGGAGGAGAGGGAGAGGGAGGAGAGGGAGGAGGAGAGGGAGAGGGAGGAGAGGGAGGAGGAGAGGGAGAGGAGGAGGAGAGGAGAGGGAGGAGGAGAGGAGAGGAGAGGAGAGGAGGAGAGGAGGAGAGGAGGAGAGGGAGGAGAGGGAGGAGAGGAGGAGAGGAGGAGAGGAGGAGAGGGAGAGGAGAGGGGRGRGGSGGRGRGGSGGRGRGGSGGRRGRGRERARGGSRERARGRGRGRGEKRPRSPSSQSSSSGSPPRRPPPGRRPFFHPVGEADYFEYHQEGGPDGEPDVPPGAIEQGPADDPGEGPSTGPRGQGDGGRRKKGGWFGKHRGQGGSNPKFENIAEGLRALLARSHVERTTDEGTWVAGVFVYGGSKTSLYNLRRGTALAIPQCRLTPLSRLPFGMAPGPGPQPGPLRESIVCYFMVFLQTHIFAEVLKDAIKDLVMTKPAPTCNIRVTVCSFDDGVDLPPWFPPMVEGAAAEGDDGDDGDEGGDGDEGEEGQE
# Assay: cell-based assay (EBNA1 transcription derepression assay, Qp-luciferase reporter in 293T cells)
# Conditions: final concentration range 125 μM-2 nM, 125000 nM = not active
# Description: EBNA1 Transcription Derepression Assay.
# 293T cells were seeded in 10-cm plates in DMEM media with 10% FBS. Following a 18-hour incubation at 37° C. to allow cells to adhere, cells at 50-70% confluence were transfected using 40 μL LIPOFECTAMINE (INVITROGEN) per plate. The cells were transfected with a 4 μg Qp-luciferase reporter plasmid (N1852) and 0.125 μg EBNA1 expression plasmid (N803) or 4 μg Qp-luciferase reporter plasmid (N1852) and 0.125 μg control plasmid (N799) (no EBNA) per plate. After 24 hours, the cells were harvested without trypsin, centrifuged 1200 RPM for 5 minutes and resuspended in DMEM media with 10% FBS at a concentration 100,000 cells per milliliter. Forty μL of this solution […] was dispensed to each well of the white plate using a BIOTEK MICROFLO Select Dispenser. Test compounds were added to achieve a final concentration range of 125 μM-2 nM, as described above. Cells were incubated at 37° C. for 48 hours, harvested and analyzed for luciferase activity using the PROMEGA STEADY-GLO luciferase system and read using a PERKIN ELMER 2104 Multilabel Reader.
# Compounds were screened for activity in the cell-based assay disclosed herein.
row,Molecule,IC50 [nM]
1,O=C(Oc1ccc(Cl)cc1)c1ccc2occc2c1 [VKE01441],9060
2,CC(C)(C)c1ccc(OC(=O)c2ccc3occc3c2)cc1 [VKE01442],2630
3,O=C(Cc1ccc(Cl)cc1Cl)Oc1ccc2occ([N+](=O)[O-])c2c1 [VKE01443],> 125000
4,O=C(Oc1ccc2occ([N+](=O)[O-])c2c1)c1cccnc1 [VKE01444],> 125000
5,O=C(Oc1ccc2occ([N+](=O)[O-])c2c1)c1ccncn1 [VKE01445],> 125000
6,O=C(Oc1ccc2occ([N+](=O)[O-])c2c1)c1ncccc1C(F)(F)F [VKE01446],> 125000
7,O=C(Oc1ccc2occ([N+](=O)[O-])c2c1)c1ccno1 [VKE01447],> 125000
8,O=C(Oc1ccc2occ([N+](=O)[O-])c2c1)c1ccc(N2CCOCC2)cc1 [VKE01448],30600
9,O=C(Oc1ccc2occ([N+](=O)[O-])c2c1)c1ccccc1C(F)(F)F [VKE01449],> 125000
10,CCc1ccccc1C(=O)Oc1ccc2occ([N+](=O)[O-])c2c1 [VKE01450],9020
11,O=C(Oc1ccc2occ([N+](=O)[O-])c2c1)c1ccc(F)cc1Cl [VKE01451],3280
12,Cc1cc(C)cc(CC(=O)Oc2ccc3occ([N+](=O)[O-])c3c2)c1 [VKE01452],> 125000
13,CCCCc1ccc(C(=O)Oc2ccc3occ([N+](=O)[O-])c3c2)cc1 [VKE01453],1240
14,O=[N+]([O-])c1coc2ccc(OCc3ccc(Cl)cc3)cc12 [VKE01454],9780
15,O=[N+]([O-])c1coc2ccc(OCc3ccccc3)cc12 [VKE01455],27200
16,O=[N+]([O-])c1coc2ccc(OCc3ccc(OC(F)(F)F)cc3)cc12 [VKE01456],14000
17,O=C(Nc1ccc2occc2c1)c1ccc(F)cc1Cl [VKE01457],18.9

row,Molecule,IC50 [nM]
1,O=C(Nc1ccc2occc2c1)c1ccc(C(F)(F)F)cc1 [VKE01458],4.76
2,O=C(Nc1ccc2occc2c1)c1ccccc1C(F)(F)F [VKE01459],6520
3,CCCCc1ccc(C(=O)Nc2ccc3occc3c2)cc1 [VKE01460],12.3
4,CCc1ccccc1C(=O)Nc1ccc2occc2c1 [VKE01461],1020
5,O=C(Nc1ccc2occc2c1)c1ccc(N2CCOCC2)cc1 [VKE01462],298
6,O=C(Nc1ccc2occc2c1)c1cccnc1 [VKE01463],1260
7,O=C(Nc1ccc2occc2c1)c1ncccc1C(F)(F)F [VKE01464],1090
8,O=C(Nc1ccc2occc2c1)c1ccncn1 [VKE01465],1660
9,O=C(Nc1ccc2occc2c1)c1ccno1 [VKE01466],83800
10,O=C(Nc1ccccc1F)c1ccc2occc2c1 [VKE01467],674
11,O=C(Nc1cccc(Cl)c1)c1ccc2occc2c1 [VKE01468],813
12,CC(C)(C)c1ccc(NC(=O)c2ccc3occc3c2)cc1 [VKE01469],62.7
13,Cc1cc(NC(=O)c2ccc3occc3c2)ccc1Cl [VKE01470],42
14,O=C(Nc1ccc(F)c(F)c1)c1ccc2occc2c1 [VKE01471],847
15,O=C(Nc1ccccn1)c1ccc2occc2c1 [VKE01472],152
16,O=C(Nc1ccncc1)c1ccc2occc2c1 [VKE01473],20800
17,Cc1csc(NC(=O)c2ccc3occc3c2)n1 [VKE01474],60.2

# Reference: US9309212B2, “Compositions and methods for modulating the activity of Epstein-Barr nuclear antigen 1” (The Wistar Institute, priority 2011, dated 2016)
